The Kinase Knowledgebase extract (Sharma et al. 2016)

Biological target: ROCK2 (human) (UniProt O75116)
Assay: Assessment of ROCK2 Kinase Activity

Sequence of ROCK2 (human) (O75116 whole entry, looked up): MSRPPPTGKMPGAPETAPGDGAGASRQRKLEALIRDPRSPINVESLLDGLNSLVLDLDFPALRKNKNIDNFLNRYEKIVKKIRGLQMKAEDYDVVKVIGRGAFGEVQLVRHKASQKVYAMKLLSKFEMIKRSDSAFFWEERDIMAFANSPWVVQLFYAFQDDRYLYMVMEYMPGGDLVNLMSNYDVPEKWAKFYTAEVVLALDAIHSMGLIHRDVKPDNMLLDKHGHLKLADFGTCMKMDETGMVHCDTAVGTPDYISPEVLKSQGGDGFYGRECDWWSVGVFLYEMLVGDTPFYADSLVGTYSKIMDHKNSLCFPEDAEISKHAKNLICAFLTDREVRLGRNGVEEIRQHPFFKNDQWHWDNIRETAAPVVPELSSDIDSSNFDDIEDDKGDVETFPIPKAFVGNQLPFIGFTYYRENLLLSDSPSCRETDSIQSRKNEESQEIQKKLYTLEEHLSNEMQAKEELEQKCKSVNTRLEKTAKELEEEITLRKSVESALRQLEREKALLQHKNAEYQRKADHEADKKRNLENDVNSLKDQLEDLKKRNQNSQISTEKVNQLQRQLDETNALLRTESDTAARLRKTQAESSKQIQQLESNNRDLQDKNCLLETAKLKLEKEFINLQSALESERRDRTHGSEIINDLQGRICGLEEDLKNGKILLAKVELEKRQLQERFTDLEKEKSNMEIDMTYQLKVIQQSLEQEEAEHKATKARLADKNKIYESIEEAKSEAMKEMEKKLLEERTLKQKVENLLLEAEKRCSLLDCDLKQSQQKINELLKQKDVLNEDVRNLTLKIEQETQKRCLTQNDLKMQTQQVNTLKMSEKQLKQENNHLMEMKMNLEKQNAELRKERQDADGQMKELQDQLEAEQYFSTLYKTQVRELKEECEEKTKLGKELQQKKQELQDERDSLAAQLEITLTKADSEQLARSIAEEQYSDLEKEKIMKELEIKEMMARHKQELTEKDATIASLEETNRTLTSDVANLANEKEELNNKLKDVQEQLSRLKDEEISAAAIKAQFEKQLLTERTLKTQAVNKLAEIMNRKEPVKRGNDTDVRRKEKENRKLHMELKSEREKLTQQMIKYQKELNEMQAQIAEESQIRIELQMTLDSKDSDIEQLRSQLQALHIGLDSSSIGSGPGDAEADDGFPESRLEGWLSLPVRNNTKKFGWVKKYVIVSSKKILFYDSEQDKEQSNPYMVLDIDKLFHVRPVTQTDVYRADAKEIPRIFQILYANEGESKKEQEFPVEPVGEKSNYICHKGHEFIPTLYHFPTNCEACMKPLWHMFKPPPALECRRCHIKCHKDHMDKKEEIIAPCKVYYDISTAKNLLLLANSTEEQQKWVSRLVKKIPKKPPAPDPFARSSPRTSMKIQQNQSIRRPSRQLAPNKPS

IC50 | Compound
≤ 1 µM | O=c1[nH]ccc2cc(N[C@@H]3CCCN(Cc4ccccc4)C3)ccc12
≤ 1 µM | Cc1ccc(CN2CC[C@H](Nc3ccc4c(=O)[nH]ccc4c3)C2)cc1
≤ 1 µM | O=c1[nH]ccc2cc(N[C@@H]3CCCN(Cc4ccc5ccccc5c4)C3)ccc12
≤ 1 µM | O=c1[nH]ccc2cc(N[C@H]3CCN(Cc4ccc5ccccc5c4)C3)ccc12
≤ 1 µM | O=c1[nH]ccc2cc(NC3CN(Cc4ccccc4Cl)C3)ccc12

More lines, now with the values behind:

Compound | IC50
Clc1cc2cnccc2cc1SC1CCCNC1 (stereo not given) | ≤ 1 µM
CCCc1cc2cnccc2cc1SC1CCNCC1 | ≤ 1 µM
CC(C)CCN1CCC[C@@H](Nc2ccc3c(=O)[nH]ccc3c2)C1 | ≤ 1 µM
O=c1[nH]ccc2cc(N[C@H]3CCN(Cc4cccc(Cl)c4F)C3)ccc12 | ≤ 1 µM
O=c1[nH]ccc2cc(N[C@H]3CCN(CC4CC4)C3)ccc12 | ≤ 1 µM
O=c1[nH]ccc2cc(S(=O)(=O)C3CCNCC3)c(Cl)cc12 | ≤ 1 µM
O=c1[nH]ccc2cc(SC3CCNCC3)c(Cl)cc12 | ≤ 1 µM
Brc1cc2cnccc2cc1SC1CCCNCC1 (stereo not given) | ≤ 1 µM
CCCCN1CCC[C@@H](Nc2ccc3c(=O)[nH]ccc3c2)C1 | ≤ 1 µM
O=c1[nH]ccc2cc(NC3CN(Cc4cccc(Cl)c4F)C3)ccc12 | ≤ 1 µM
